Laboratory results taken from the NIST ThermoML archive (doi:10.1016/j.fluid.2012.03.016).
± gives the expanded uncertainty stated by the source.

Conditions: Pendant drop shape

C[N+](C)(C)CCO.O=C([O-])CCC(=O)O [2-hydroxy-N,N,N-trimethylethanaminium 3-carboxypropanoate]
Conditions | surface tension liquid-gas [mN/m]
308.2 K | 40.7 ± 1.1
313.9 K | 40.4 ± 1.1
319.2 K | 40.1 ± 1.1
324 K | 39.5 ± 1.1
328.5 K | 39.5 ± 1.1
333.6 K | 38.9 ± 1.1
339.4 K | 38.4 ± 1.1

CCC(=O)[O-].C[N+](C)(C)CCO [cholinium propanoate]
Conditions | surface tension liquid-gas [mN/m]
294 K | 34.6 ± 1.1
302.6 K | 33.3 ± 1.1
313.7 K | 32.6 ± 1.1
324.1 K | 32.3 ± 1.1
333.8 K | 31.7 ± 1.1
343.4 K | 31.2 ± 1.1
354.5 K | 30.9 ± 1.1
373.4 K | 29.5 ± 1.1
392.6 K | 28.6 ± 1.1

C/C=C(\C)C(=O)[O-].C[N+](C)(C)CCO
Conditions | surface tension liquid-gas [mN/m]
294 K | 31.6 ± 1.1
303.9 K | 30.7 ± 1.1
314.2 K | 30.7 ± 1.1
323.9 K | 30.9 ± 1.1
333.5 K | 30.2 ± 1.1
338 K | 29.8 ± 1.1
340.1 K | 29.9 ± 1.1
346.2 K | 29.9 ± 1.1
348.2 K | 28.5 ± 1.1
357.4 K | 28 ± 1.1
362.5 K | 28.2 ± 1.1
373 K | 27.6 ± 1.1
379.5 K | 26.1 ± 1.1
391.8 K | 26.4 ± 1.1
